Patent publication US9463256B2, “Pretargeting kit, method and agents used therein” (KONINKLIJKE PHILIPS N.V., priority 2010, dated 2016)

System: LS174T tumor model
Assay: Biodistribution experiments in tumor bearing mice pretargeted with CC49-TCO constructs
Type: in vivo, Nude female Balb/C mice
Conditions: 3 h after injection
Method: LS174T tumor model. The human colon cancer cell line LS174T was obtained from the ATCC and maintained in Eagle's minimal essential medium (Sigma) supplemented with 10% heat inactivated fetal calf serum (Gibco), penicillin (100 U/mL), streptomycin (100 μg/mL) and 2 mM Glutamax. Nude female Balb/C mice (20-25 g body weight, Charles River Laboratories) were inoculated subcutaneously with 5×10^6 cells in 100 μL sterile PBS.
Dual isotope biodistribution experiments were performed by injecting tumor bearing mice (n=3) intravenously with ^125I-labeled CC49-TCO constructs with and without PEG10 spacer (100 μg/100 μL per mouse, ca. […] 0.8 MBq). Three hours after tetrazine administration, the animals were anesthetized with isoflurane and sacrificed by cervical dislocation. Blood was withdrawn by heart puncture and organs and tissues of interest were harvested, blotted dry and weighed. The radioactivity of the samples was measured in a γ-counter along with standards to determine the % ID/gram. The energy windows were set to 10-80 keV and 100-510 keV for ^125I and ^111In, respectively.

[1] = 1 day pretargeting with CC49-14b
[2] = 1 day pretargeting with CC49-20a
[3] = 1 day pretargeting with CC49-20b
[4] = 3 days pretargeting with CC49-14b
[5] = 3 days pretargeting with CC49-20a

In the case of `O=C([O-])CN1CCN(CC(=O)[O-])CCN(CC(=O)NCCOCCOCCOCCOCCOCCOCCOCCOCCOCCOCCOCCNC(=O)CCCC(=O)Nc2ccc(-c3nnc(-c4ccccn4)nn3)nc2)CCN(CC(=O)[O-])CC1.[111In+3]` [^111In-tetrazine 28], the “^111In-tetrazine in Blood” value [1] was 1.12 ± 0.09 % ID/gram, the “^111In-tetrazine in Bone” value [1] was 0.27 ± 0.08 % ID/gram and the “^111In-tetrazine in Brain” value [1] was 0.05 ± 0.01 % ID/gram. The “^111In-tetrazine in Heart” value [1] was 0.46 ± 0.12 % ID/gram, the “^111In-tetrazine in Kidney” value [1] was 3.12 ± 0.33 % ID/gram and the “^111In-tetrazine in Liver” value [1] was 1.17 ± 0.35 % ID/gram. The “^111In-tetrazine in Lung” value [1] was 0.79 ± 0.24 % ID/gram, the “^111In-tetrazine in Muscle” value [1] was 0.22 ± 0.07 % ID/gram and the “^111In-tetrazine in Spleen” value [1] was 0.53 ± 0.14 % ID/gram. For the same molecule, the “^111In-tetrazine in Tumor” value [1] was 2.59 ± 0.35 % ID/gram, the “^111In-tetrazine in Blood” value [2] was 2.39 ± 1.77 % ID/gram and the “^111In-tetrazine in Bone” value [2] was 0.33 ± 0.16 % ID/gram. The “^111In-tetrazine in Brain” value [2] was 0.10 ± 0.06 % ID/gram, the “^111In-tetrazine in Heart” value [2] was 0.84 ± 0.71 % ID/gram and the “^111In-tetrazine in Kidney” value [2] was 2.84 ± 0.35 % ID/gram. For the same molecule, the “^111In-tetrazine in Liver” value [2] was 2.05 ± 1.03 % ID/gram, the “^111In-tetrazine in Lung” value [2] was 1.13 ± 0.55 % ID/gram and the “^111In-tetrazine in Muscle” value [2] was 0.33 ± 0.22 % ID/gram. For the same molecule, the “^111In-tetrazine in Spleen” value [2] was 0.83 ± 0.46 % ID/gram, the “^111In-tetrazine in Tumor” value [2] was 2.40 ± 0.16 % ID/gram and the “^111In-tetrazine in Blood” value [3] was 1.61 ± 0.45 % ID/gram. The “^111In-tetrazine in Bone” value [3] was 0.40 ± 0.05 % ID/gram, the “^111In-tetrazine in Brain” value [3] was 0.07 ± 0.01 % ID/gram and the “^111In-tetrazine in Heart” value [3] was 0.50 ± 0.04 % ID/gram. For the same molecule, the “^111In-tetrazine in Kidney” value [3] was 3.39 ± 0.84 % ID/gram, the “^111In-tetrazine in Liver” value [3] was 1.41 ± 0.45 % ID/gram and the “^111In-tetrazine in Lung” value [3] was 0.97 ± 0.16 % ID/gram. For the same molecule, the “^111In-tetrazine in Muscle” value [3] was 0.24 ± 0.06 % ID/gram, the “^111In-tetrazine in Spleen” value [3] was 0.65 ± 0.12 % ID/gram and the “^111In-tetrazine in Tumor” value [3] was 3.42 ± 0.40 % ID/gram. The “^111In-tetrazine in Blood” value [4] was 0.54 ± 0.11 % ID/gram, the “^111In-tetrazine in Bone” value [4] was 0.20 ± 0.07 % ID/gram and the “^111In-tetrazine in Brain” value [4] was 0.03 ± 0.01 % ID/gram. The “^111In-tetrazine in Heart” value [4] was 0.24 ± 0.07 % ID/gram, the “^111In-tetrazine in Kidney” value [4] was 2.82 ± 0.28 % ID/gram and the “^111In-tetrazine in Liver” value [4] was 0.84 ± 0.21 % ID/gram. The “^111In-tetrazine in Lung” value [4] was 0.50 ± 0.11 % ID/gram, the “^111In-tetrazine in Muscle” value [4] was 0.16 ± 0.04 % ID/gram and the “^111In-tetrazine in Spleen” value [4] was 0.34 ± 0.09 % ID/gram. For the same molecule, the “^111In-tetrazine in Tumor” value [4] was 2.76 ± 1.36 % ID/gram, the “^111In-tetrazine in Blood” value [5] was 0.79 ± 0.39 % ID/gram and the “^111In-tetrazine in Bone” value [5] was 0.15 ± 0.00 % ID/gram. For the same molecule, the “^111In-tetrazine in Brain” value [5] was 0.26 ± 0.11 % ID/gram, the “^111In-tetrazine in Heart” value [5] was 0.30 ± 0.03 % ID/gram and the “^111In-tetrazine in Kidney” value [5] was 3.16 ± 0.57 % ID/gram. For the same molecule, the “^111In-tetrazine in Liver” value [5] was 0.88 ± 0.13 % ID/gram and the “^111In-tetrazine in Lung” value [5] was 0.58 ± 0.07 % ID/gram.
